Data as given in patent publication US20210401867A1, “PHOTOSENSITIZERS AND METHOD OF TREATING CANCER USING THE SAME” (Cheng-Wen Wu, priority 2018, published 2021).

Key:
FaDu cells [1] = experiment: in vitro cell viability of FaDu cells; assay type: cell-based, human; settings: for cytotoxicity: viability and colony forming
FaDu cells [2] = experiment: colony forming assay of FaDu cells; assay type: cell-based, human
Method: In the following examples, FaDu cells are used in cell viability tests and colony forming assays. FaDu cells (ATCC HTB-43) is a human head-and-neck cell line with squamous phenotype. FaDu cells used in the following examples are cultured in DMEM medium supplemented with 10% fetal bovine serum (FBS) and 1% penicillin/streptomycin, in a humidified incubator maintained at 37° C. and 5% CO2.
Referring to FIGS. 9A-C, an in vitro cell viability chart of FaDu cells when treated with BrdU alone, NR alone, and BrdU and NR, is provided in accordance with an exemplary embodiment of the present disclosure. NR treatments in FIGS. 9A, 9B, and 9C are similar with the experiment procedures for FIG. 6. In samples where FaDu cells are treated with BrdU and NR, FaDu cells are incubated with BrdU for 24 hours before irradiated with NR. Referring to FIG. 9B, a colony forming assay result of FaDu cells after the treatments described in […], is provided in accordance with an exemplary embodiment of the present disclosure. The colony forming assay in FIG. 9B are proceeded as following: FaDu cells treated by different regimens are grouped and seeded in 6-well-plates with 1000 cells in each of the well and cultured for 14 days; the culture medium was replaced every 3 to 4 days; in the end of the experiment, the cells are washed twice with PBS and fixed with 4% paraformaldehyde for 15 minutes and stained with 0.1% crystal violet. Referring to FIG. 9C, a quantitative result of the colony forming assay in FIG. 9B is provided in accordance with an exemplary embodiment of the present disclosure. In FIG. 9C, the results of the colony forming assay are quantified by microscopic examination by stereomicroscope.

For dibromocurcumin [DBC], the “cytotoxicity to FaDu cells” value (FaDu cells [1]; 20 μM of DBC combined with 1 Gy of NR) was “significantly higher than using DBC or NR alone”, the “cytotoxicity of the combination with NR” value (FaDu cells [1]; DBC and NR, FaDu cells) was “synergistic cytotoxicity” and the cytotoxicity (FaDu cells [1]; DBC dosage less than 20 μM) was “little cytotoxicity”. The cytotoxicity (FaDu cells [1]; DBC dosage more than 120 μM) was “efficiently kills FaDu cells”, the cell viability (FaDu cells [1]; FaDu cells, 80 μM DBC for 24 hours, Day 7) was “less than 50%” and the “colony forming assay versus DBC or NR alone” value (FaDu cells [2]; DBC combined with 1 Gy of 14 keV NR) was “same result”. For the same substance, the colony forming inhibition (FaDu cells [2]; FaDu cells, 40 μM DBC) was “about 50%”.
